The conditions of series [1]: cited from earlier work.
For a further series, the system named is Male Brown Norway Rats. To be noted: rat, in vivo, ip, 2 days.

Where two headings read alike, the source gives them in different places.

Protocol for Male Brown Norway Rats: Thymus weight reduction studies were performed in accordance to the NIH GUIDE TO THE CARE AND USE OF LABORATORY ANIMALS and the Animal Welfare Act in an AAALAC-accredited program. Male Brown Norway Rats (200-250 g, Charles River, Bloomington, Mass., USA) were used in these studies. The effect of test steroid compounds compared to a control group was studied on thymus involution. […] Rats were dosed i.p. with test compound QD for two days. Twenty four hours after the 2nd dose, animals were euthanized with pentobarbital (125 mg/kg, i.p.). The thymus were removed and weighed and the results expressed as a percentage thymus involution. Doses are expressed in mg/kg. “NS” means not statistically significant.

In the case of `Oc1cccc(Nc2ncc(F)c(Nc3cccc(O)c3)n2)c1` [Example R112], the “improvement from baseline measurements of symptoms associated with chronic nasal congestion” value in series [1] (from baseline (prior to drug initiation)) is reported as “up to 38%”. In series [1] (versus placebo, absolute), the “absolute difference over placebo, symptoms associated with chronic nasal congestion” value is recorded as 9%. Moreover, the “relative improvement over placebo, symptoms associated with chronic nasal congestion” value in series [1] (versus placebo, relative) is “greater than 20%”.

For `CC12CCC(=O)C=C1CCC1C2[C@@H](O)CC2(C)C1CC[C@]2(O)C(=O)CSc1nc2ccccc2s1` (stereo partly drawn) [Inventive Compound A], the “% Thymus Involution” value in the series with Male Brown Norway Rats (30 mg/kg) is on record as −4 ± 7%. Still for that read-out and setting: the same measure for `CC12C[C@H](O)[C@@]3(F)C(CCC4=CC(=O)CCC43C)C1CC[C@]2(O)C(=O)CSc1nc2ccccc2s1` (stereo partly drawn) [Inventive Compound B]: 10 ± 4%. `C[C@@H]1CC2C3CCC4=CC(=O)C=CC4(C)[C@@]3(F)[C@@H](O)CC2(C)[C@@]1(O)C(=O)CSc1nc2ccccc2s1` (stereo partly drawn) [US′120]: the “% Thymus Involution” value in the series with Male Brown Norway Rats (10 mg/kg) was found to be 62 ± 3%.
